Laboratory results published in publication PMC6017655, “In Silico and in Vitro-Guided Identification of Inhibitors of Alkylquinolone-Dependent Quorum Sensing in Pseudomonas aeruginosa” (Molecules : A Journal of Synthetic Chemistry and Natural …, 2018).

Assays:
PA14 biofilms = test: Biofilm assay on glass coverslips, GFP-labelled PA14; assay type: cell-based, Pseudomonas aeruginosa
Experimental: (§1) One of the clinical challenges of P. aeruginosa infections is the difficulty associated with the effective treatment of biofilms due to their high resistance to antibiotics. […] The effect of Ia, with or without tobramycin, on PA14 and PAO1-L biofilms grown on glass coverslips, was determined. […] The experiment was performed using green fluorescent labelled (GFP)-labelled PAO1-L and PA14 strains, grown under four different conditions: (i) no treatment (control); (ii) compound Ia at 8 µM in PA14 and 34 µM in PAO1-L (concentrations equal to 3× IC50); (iii) tobramycin at 100 µg/mL; (iv) Ia and tobramycin, at the same concentrations as (ii) and (iii).
(§2) Biofilms were cultivated on borosilicate glass coverslips in petri dishes. P. aeruginosa strains, PAO1-L and PA14, were labelled by transformation with plasmid pMMG, which constitutively expresses GFP from the Ptac promoter. Labelled strains were grown at 37 °C, for 16 h, in 2 mL RPMI-1640 (Lonza, Slough, UK), supplemented with 20 mM D-glucose (Sigma–Aldrich, Dorset, UK) and 2 µM FeCl3 (Sigma–Aldrich, Dorset, UK). Cultures were diluted 1:100 in fresh medium and allowed to grow for a further 4 h, or until an OD600 of 0.5 was reached. The mid-logarithmic cultures were diluted to an OD600 of 0.01 in 25 mL RPMI, supplemented with glucose and FeCl3, and inoculated into petri dishes containing UV sterilised borosilicate glass coverslips (22 × 22 mm, thickness no1) (VWR, Lutterworth, UK). Bacterial cells were seeded at 37 °C under static conditions for 1.5 h, and compound Ia was added to the culture at a concentration of 34 µM for P. aeruginosa PAO1-L and 8 µM for PA14 before dishes were moved to a shaker at 60 rpm and 37 °C for 15 h to form mature biofilms. Tobramycin and propidium iodide were added to the 15 h-old cultures at concentrations of 100 µg/mL and 2 µM, respectively, followed by further incubation for 4 h. Coverslips were examined under a Laser Scanning Fluorescent Microscope (LSM2, Zeiss, Oberkochen, Germany). Biofilms were visualised using egfp mode at an excitation wavelength of 488nm. Imaging was carried out using Zen 2011 imaging software (Zeiss, Oberkochen, Germany). A total of 5 Z-stacked images were collected per coverslip. Sampling was conducted at random from the central portion of each coverslip. Biomass was calculated using Image J (NIH, Bethesda, MD, USA) and Comstat 2.1. Software package (www.comstat.dk, lyngby, Denmark).

PAO1-L biofilms = test: Biofilm assay on glass coverslips, GFP-labelled PAO1-L; assay type: cell-based, Pseudomonas aeruginosa
Experimental: as §1, §2

[1] = Ia 8 µM, tobramycin 100 µg/mL for 4 h
[2] = Ia 34 µM, tobramycin 100 µg/mL for 4 h

O=CN1N=C(c2ccccc2)CC1c1cccc(Nc2ccnc3cc(Cl)ccc23)c1 (stereo not drawn) [Ia]
Sensitisation of biofilm to tobramycin / effect of combined treatment, PA14 (PA14 biofilms; Ia 8 µM plus tobramycin 100 µg/mL for 4 h): sensitized the biofilm to tobramycin | Effect on biofilm biomass, PA14 (PA14 biofilms; [1]): reducing biomass | Effect on cell viability in biofilm (propidium iodide), PA14 (PA14 biofilms; [1]): little impact on cell viability | Sensitisation of biofilm to tobramycin / effect of combined treatment, PAO1-L (PAO1-L biofilms; Ia 34 µM plus tobramycin 100 µg/mL for 4 h): sensitized the biofilm to tobramycin | Effect on biofilm biomass, PAO1-L (PAO1-L biofilms; [2]): reducing biomass | Effect on cell viability in biofilm (propidium iodide), PAO1-L (PAO1-L biofilms; [2]): little impact on cell viability
